These results are taken from ChEMBL document CHEMBL6074635, “Replacement of the essential nitro group by electrophilic warheads towards nitro-free antimycobacterial benzothiazinones” (Eur J Med Chem, 2024).

What is called MIC is the smallest concentration in the dilution series that meets the test's criterion for growth inhibition. The half-life is the time needed for the level to fall by half in the phase considered. As a reminder, the CC50 is the concentration that lowers cell viability or growth by half. A low value points to greater toxicity to the cells. Usually pIC50 stands for the IC50 on a negative log10 scale, so that one unit is a factor of ten. The term pKi denotes the Ki on a negative log10 scale, so that one unit is a factor of ten.

The test system of series [1] is Mycolicibacterium smegmatis. The series is described as follows: Antimycobacterial activity against Mycobacterium smegmatis JMRC:STH:00056 assessed as inhibition of bacterial growth incubated for 42 hrs by broth microdilution method. In kind it is functional. (In broth dilution the organism is exposed to a series of concentrations in liquid medium.)
A short description of series [2]: Drug metabolism in BALB/cAnNCrl mouse assessed as HMC metabolite formation at 250 mg/kg,po measured after 24 hrs by UHPLC-HRMS analysis. In kind it is ADME, organism-based. The note with it: in vivo.
Series [3] is described as follows: Stability of compound in PBS at pH 7.4 assessed as half-life in presence of GSH incubated for 90 mins by UPLC-HRMS analysis. The note with it: PBS with GSH. In kind it is physicochemical.
Series [4] relates to Mycolicibacterium vaccae. Nature of the series: Antimycobacterial activity against Mycobacterium vaccae JMRC:STI:10670 assessed as inhibition of bacterial growth incubated for 42 hrs by broth microdilution method. In kind it is functional.
Series [5] can be described thus: Cytotoxicity against human HeLa cells incubated for 72 hrs by cell-titer blue reagent assay. Type of series: toxicity, cell-based.
Series [6] concerns Mycobacterium tuberculosis. Nature of the series: Antimycobacterial activity against Mycobacterium tuberculosis Erdman ATCC 35801 assessed as inhibition of bacterial growth incubated for 7 days by resazurin dye based two-fold dilution assay. In kind it is functional. The note with it: Erdman ATCC 35801, 168 h, time 7 day. In general terms: Resazurin is reduced to fluorescent resorufin, in cell work by metabolically active cells.

For series [7], the system named is Mycobacterium tuberculosis. The series is described as follows: Antimycobacterial activity against Mycobacterium tuberculosis H37Rv assessed as inhibition of bacterial growth incubated for 7 days by resazurin dye based two-fold dilution assay. In kind it is functional. The settings on record: 168 h, time 7 day.
Series [8] addresses T1, Decaprenylphosphoryl-beta-D-ribose oxidase (Mycobacterium tuberculosis (strain ATCC 25618 / H37Rv), UniProt P9WJF1).
T1 sequence (P9WJF1 whole entry): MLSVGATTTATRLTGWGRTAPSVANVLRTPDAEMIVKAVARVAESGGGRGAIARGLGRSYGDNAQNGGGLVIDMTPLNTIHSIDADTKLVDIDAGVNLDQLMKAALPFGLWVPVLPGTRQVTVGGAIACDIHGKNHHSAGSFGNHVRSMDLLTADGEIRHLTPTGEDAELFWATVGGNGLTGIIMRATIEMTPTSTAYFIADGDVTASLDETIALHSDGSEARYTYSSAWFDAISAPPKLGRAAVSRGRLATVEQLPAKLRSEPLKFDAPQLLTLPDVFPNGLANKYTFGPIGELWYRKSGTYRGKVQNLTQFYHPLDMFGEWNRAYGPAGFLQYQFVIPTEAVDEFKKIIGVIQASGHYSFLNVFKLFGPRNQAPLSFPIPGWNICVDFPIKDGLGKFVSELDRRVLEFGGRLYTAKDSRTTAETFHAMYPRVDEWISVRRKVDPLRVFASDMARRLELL
The series is described as follows: Reversible inhibition of recombinant Mycobacterium tuberculosis DprE1 extracted from Escherichia coli BL21(DE3) using FPR/GGPR as substrate incubated for 60 mins by resazurin dye based fluorescence plate reader analysis.

Series [9] can be described thus: Stability of compound in PBS at pH 7.4 in presence of GSH incubated for 90 mins by UPLC-HRMS analysis. In kind it is physicochemical. The settings on record: buffer, pH 7.4, 1.5 h.
For series [10], the target named is T1, Decaprenylphosphoryl-beta-D-ribose oxidase. The series is described as follows: Covalent inhibition of recombinant Mycobacterium tuberculosis DprE1 extracted from Escherichia coli BL21(DE3) assessed as inhibition constant using FPR/GGPR as substrate incubated for 60 mins by resazurin dye based fluorescence plate reader analysis.
The target is the same in series [11]. The series is described as follows: Covalent inhibition of recombinant Mycobacterium tuberculosis DprE1 extracted from Escherichia coli BL21(DE3) using FPR/GGPR as substrate incubated for 60 mins by resazurin dye based fluorescence plate reader analysis.
The nature of series [12]: Stability of compound in PBS at pH 7.4 assessed as compound remaining in presence of GSH incubated for 90 mins by UPLC-HRMS analysis. In kind it is physicochemical. The settings on record: PBS with GSH, read-out: Stability.

Molecules are shown by their SMILES. pIC50, pKi: −log10 of the molar value. ≈ marks a conversion by molar mass, not a printed value.

In the case of `C#CP(=O)(Nc1cc(C(F)(F)F)cc2c(=O)nc(N3CCC4(CC3)OC[C@H](C)O4)sc12)OCC` (stereo partly specified), the MIC in series [1] worked out at 96.6 µM (≈ 50 µg/mL); in series [4], 12 µM (≈ 6.21 µg/mL); in series [6], 10.3 µM (≈ 5.33 µg/mL); in [7], 10.3 µM (≈ 5.33 µg/mL). Moreover, the Drug metabolism entry in series [2] is recorded as “metabolite_notdetected”. The half-life in series [3] was 10.5 min. The compound also had a CC50 at 72 h in series [5] of 10.8 µM.
In the case of `C=C=CC(=O)Nc1cc(C(F)(F)F)cc2c(=O)nc(N3CCC4(CC3)OC[C@H](C)O4)sc12`, the MIC in series [1] and in series [4] was 107 µM (≈ 50 µg/mL) throughout.
For `C=CS(=O)(=O)Nc1cc(C(F)(F)F)cc2c(=O)nc(N3CCC4(CC3)OC[C@H](C)O4)sc12`, the MIC amounted to 25.4 µM (≈ 12.5 µg/mL) in series [1], 1.6 µM (≈ 0.786 µg/mL) in series [4], 44.9 µM (≈ 22.1 µg/mL) in series [6] and 45.2 µM (≈ 22.2 µg/mL) in series [7]. Moreover, the pIC50 in series [8] is 5.58.
On to `COC(=O)C(=O)Nc1cc(C(F)(F)F)cc2c(=O)nc(N3CCC4(CC3)OC[C@H](C)O4)sc12`, for which the MIC stood at 103 µM (≈ 50 µg/mL) in [1] and 51.3 µM (≈ 25 µg/mL) in series [4]. The Drug metabolism result in series [2] is “metabolite_notdetected”. Besides, the CC50 at 72 h in series [5] is > 50 µM. In addition, in series [9], the Stability entry is “Unstable”.
For `CCOC(=O)C(=O)Nc1cc(C(F)(F)F)cc2c(=O)nc(N3CCC4(CC3)OC[C@H](C)O4)sc12` the same measures were 99.7 µM (≈ 50 µg/mL), 49.8 µM (≈ 25 µg/mL), “metabolite_notdetected”, > 50 µM and “Unstable”.
Take `C=CC(=O)Nc1cc(C(F)(F)F)cc2c(=O)nc(N3CCC4(CC3)OC[C@H](C)O4)sc12`: the results for the minimum inhibitory concentration (MIC) in [1], in series [6] and in series [7] were 110 µM (≈ 50 µg/mL), 3.6 µM (≈ 1.64 µg/mL) and 3.9 µM (≈ 1.78 µg/mL), respectively. The negative-log Ki (pKi) in [10] is 4.41. In addition, the pIC50 in [11] was 5.17.
On to `C=C(F)C(=O)Nc1cc(C(F)(F)F)cc2c(=O)nc(N3CCC4(CC3)OC[C@H](C)O4)sc12`, for which the MIC in series [1] was determined as 106 µM (≈ 50 µg/mL); in series [4], 13.2 µM (≈ 6.25 µg/mL); in [6] it was 15.5 µM (≈ 7.34 µg/mL); in series [7] it was 13 µM (≈ 6.15 µg/mL). Moreover, the pIC50 in series [8] is 5.95.
With `C[C@H]1COC2(CCN(c3nc(=O)c4cc(C(F)(F)F)cc(NC(=O)C(C)(C)Br)c4s3)CC2)O1`, the figures for the minimum inhibitory concentration (MIC) in series [1] and in series [4] were 90.8 µM (≈ 50 µg/mL) and 45.4 µM (≈ 25 µg/mL), respectively. The Drug metabolism result in series [2] is reported as “metabolite_notdetected”. Besides, in series [10], the pKi is 3.15. Moreover, the remaining at 1.5 h in [12] came to 100%. For the same compound, in series [5], the CC50 at 72 h is > 50 µM. The negative-log IC50 (pIC50) in [11] was 4.09.
Consider `C[C@H]1COC2(CCN(c3nc(=O)c4cc(C(F)(F)F)cc(N5CCC5=O)c4s3)CC2)O1`, for which the figures for the minimal inhibitory concentration (MIC) in series [1] and in [4] were 110 µM (≈ 50 µg/mL) and 54.9 µM (≈ 25 µg/mL), respectively. Also, the remaining at 1.5 h in series [12] stood at 100%. In addition, in series [5], the half-maximal cytotoxic concentration (CC50) at 72 h was > 50 µM.
In the case of `C=C(C)C(=O)Nc1cc(C(F)(F)F)cc2c(=O)nc(N3CCC4(CC3)OC[C@H](C)O4)sc12`, the minimum inhibitory concentration (MIC) is 106 µM (≈ 50 µg/mL) in series [1] and 26.6 µM (≈ 12.5 µg/mL) in [4]. Besides, the negative logarithm of the Ki (pKi) in series [10] is 3.67. Besides, the negative logarithm of the IC50 (pIC50) in [11] is 4.47.
As for `CC(Cl)C(=O)Nc1cc(C(F)(F)F)cc2c(=O)nc(N3CCC4(CC3)OC[C@H](C)O4)sc12` (stereo partly specified), the MIC in [1] and in series [4] was 102 µM (≈ 50 µg/mL) in each case. Besides, the Drug metabolism entry in [2] is “metabolite_notdetected”. Moreover, the remaining at 1.5 h in [12] worked out at 100%. Also, the CC50 at 72 h in [5] is > 50 µM.
On to `C=CP(=O)(Nc1cc(C(F)(F)F)cc2c(=O)nc(N3CCC4(CC3)OC[C@H](C)O4)sc12)OCC` (stereo partly specified), for which the MIC is 24.1 µM (≈ 12.5 µg/mL) in series [1], 6 µM (≈ 3.12 µg/mL) in [4], 5 µM (≈ 2.6 µg/mL) in series [6] and 4.5 µM (≈ 2.34 µg/mL) in series [7]. The Drug metabolism entry in [2] is listed as “metabolite_notdetected”. The remaining at 1.5 h in [12] was 100%. Moreover, the CC50 at 72 h in [5] was > 50 µM. Besides, the pIC50 in series [8] is 4.71.
For the compound `C[C@H]1COC2(CCN(c3nc(=O)c4cc(C(F)(F)F)cc([N+](=O)[O-])c4s3)CC2)O1` [BTZ-043], the MIC in series [1] stood at 0.058 µM (≈ 0.025 µg/mL); in [4], 0.004 µM (≈ 0.00173 µg/mL); in series [6] it was 0.002 µM (≈ 0.000863 µg/mL); in series [7], 0.002 µM (≈ 0.000863 µg/mL).
